Values of other authors as cited in patent US6485765B1, “Lactational performance of dairy cattle” (Church & Dwight Co., Inc., priority 2000, dated 2002).

Tested on: heat stressed dairy cows
Details: per every 1% increase in K, potassium carbonate as source of dietary K

Structure (SMILES): O=C([O-])[O-].[K+].[K+] [potassium carbonate]
- increase of fat-corrected milk: 8.9 lbs/day
